Assay results as given in the supplement of paper PMC9663587.

Tests used:
PDX1206 = assay: area over the GR curve, 72 h; higher = more effect;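 also: Dye Drop or Deep Dye Drop imaging of viable cells in 384-well plates (Hoechst nuclei, LIVE/DEAD dye), nine half-log doses, GR normalized to DMSO controls and time-zero plates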
MCF10A (GM) = assay: area over the GR curve, 72 h; higher = more effect;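 also: Dye Drop or Deep Dye Drop imaging of viable cells in 384-well plates (Hoechst nuclei, LIVE/DEAD dye), nine half-log doses, GR normalized to DMSO controls and time-zero plates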
MDAMB330 = assay: GRmax, 72 h; higher = less effect;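 also: breast cell lines in 384-well plates, nine doses across a 10^4 range, Dye Drop imaging of viable cells vs DMSO and time-zero plates, GR 0 means no net growth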
SUM44PE = assay: GRmax, 72 h; higher = less effect;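 also: breast cell lines in 384-well plates, nine doses across a 10^4 range, Dye Drop imaging of viable cells vs DMSO and time-zero plates, GR 0 means no net growth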
HCC1954 = assay: GRmax, 72 h; higher = less effect;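 also: breast cell lines in 384-well plates, nine doses across a 10^4 range, Dye Drop imaging of viable cells vs DMSO and time-zero plates, GR 0 means no net growth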
HCC202 = assay: GRmax, 72 h; higher = less effect;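 also: breast cell lines in 384-well plates, nine doses across a 10^4 range, Dye Drop imaging of viable cells vs DMSO and time-zero plates, GR 0 means no net growth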
SUM190PT = assay: GRmax, 72 h; higher = less effect
BT549 = assay: GRmax, 72 h; higher = less effect
MCF7 = assay: GRmax, 72 h; higher = less effect
SUM185PE = assay: GRmax, 72 h; higher = less effect
HCC1806 = assay: GRmax, 72 h; higher = less effect

Row | Structure (SMILES) | area over the GR curve (PDX1206) | area over the GR curve (MCF10A (GM)) | GRmax, 72 h (MDAMB330) | GRmax, 72 h (SUM44PE) | GRmax, 72 h (HCC1954) | GRmax, 72 h (HCC202) | GRmax, 72 h (SUM190PT) | GRmax, 72 h (BT549) | GRmax, 72 h (MCF7) | GRmax, 72 h (SUM185PE) | GRmax, 72 h (HCC1806)
1 | COc1ccc2c(c1)[C@]1(C[C@H]1c1ccc3c(/C=C/c4ccc(CN5C[C@@H](C)O[C@@H](C)C5)cc4)n[nH]c3c1)C(=O)N2 | 0.504 GR | 0.507 GR | 0.284 GR | -0.249 GR | -0.209 GR | 0.493 GR | 0.12 GR | 0.0324 GR | -0.0551 GR | 0.364 GR | -0.106 GR
2 | COc1cccc(OCCCN)c1-c1cc(Nc2cnc(C#N)cn2)n[nH]1 | 0.427 GR | 0.245 GR | -0.183 GR | -0.79 GR | -0.312 GR | 0.0486 GR | -0.101 GR | -0.422 GR | 0.211 GR | 0.559 GR | -0.476 GR
3 | CCCCOc1c(C(=O)c2c(F)cc(C)cc2F)c[nH]c2nncc1-2 (max 10 µM) | 0.691 GR | 0.423 GR | 0.129 GR | -0.234 GR | -0.0431 GR | 0.384 GR | -0.0112 GR | -0.149 GR | 0.072 GR | 0.905 GR | 0.0151 GR
4 | CNc1nc(-c2ccc3c(N)n[nH]c3c2)cc(N2C[C@@H](C(=O)NC3CCCCC3)CC[C@H]2C)n1 (max 10 µM) | 0.327 GR | 0.0279 GR | -0.738 GR | 0.166 GR | 0.733 GR | 0.155 GR | 0.236 GR | 0.666 GR | 0.295 GR | 0.54 GR | 0.869 GR
5 | CO[C@@H](C)Cn1c(=O)n(C)c2cnc3ccc(-c4cncc(C(C)(C)O)c4)cc3c21 (max 10 µM) | 0.804 GR | 0.67 GR | -0.799 GR | -0.855 GR | -0.346 GR | -0.0355 GR | -0.5 GR | -0.0177 GR | -0.248 GR | -0.0606 GR | -0.0061 GR
6 | C=CCn1c(=O)c2cnc(Nc3ccc(N4CCN(C)CC4)cc3)nc2n1-c1cccc(C(C)(C)O)n1 [AZD1775] (max 10 µM) | 0.455 GR | 0.136 GR | -0.234 GR | -0.813 GR | -0.416 GR | -0.148 GR | -0.197 GR | -0.456 GR | -0.0913 GR | 0.213 GR | -0.55 GR
7 | CNC(=O)c1cccc(-c2ccc3c(N4CCOC[C@@H]4C)nc(N4CCOC[C@@H]4C)nc3n2)c1 [AZD2014] (max 10 µM) | 0.697 GR | 0.533 GR | -0.733 GR | -0.315 GR | 0.0889 GR | 0.0087 GR | -0.514 GR | 0.089 GR | -0.0281 GR | 0.244 GR | 0.409 GR
8 | NC1(C(=O)N[C@@H](CCO)c2ccc(Cl)cc2)CCN(c2nc[nH]c3nccc2-3)CC1 [AZD5363] (max 10 µM) | 0.4 GR | 0.214 GR | -0.643 GR | -0.152 GR | 0.272 GR | 0.572 GR | 0.243 GR | 0.557 GR | 0.476 GR | 0.447 GR | 0.789 GR
9 | C[C@@H]1COCCN1c1cc(C2([S@](C)(=N)=O)CC2)nc(-c2cc[nH]c3nccc2-3)n1 [AZD6738] (max 10 µM) | 0.0536 GR | 0.073 GR | 0.12 GR | -0.206 GR | 0.15 GR | 0.383 GR | -0.036 GR | -0.099 GR | 0.0472 GR | 0.687 GR | -0.326 GR
10 | CN(C)C/C=C/C(=O)Nc1ccc(O[C@@H]2CCC[C@@H](Nc3ncc(Cl)c(-c4c[nH]c5ccccc45)n3)C2)cc1 [BSJ-01-175] (max 10 µM) | 0.9 GR | 0.326 GR | -0.971 GR | -0.873 GR | -0.652 GR | -0.201 GR | -0.545 GR | -0.593 GR | -0.627 GR | -0.47 GR | -0.592 GR
11 | CC(=O)c1c(C)c2cnc(Nc3ccc(N4CCN(CCOCCOCCOCCNC(=O)COc5cccc6c5C(=O)N(C5CCC(=O)NC5=O)C6=O)CC4)cn3)nc2n(C2CCCC2)c1=O (centres undefined) [BSJ-03-123] (max 10 µM) | 0.163 GR | 0.25 GR | -0.0919 GR | 0.289 GR | 0.0033 GR | 0.0834 GR | -0.279 GR | 0.0183 GR | -0.323 GR | 0.665 GR | -0.0588 GR
12 | CC(C)Nc1cc(-c2c[nH]c(C(=O)N[C@H](CO)c3cccc(Cl)c3)c2)c(Cl)cn1 [BVD523] (max 10 µM) | 0.0779 GR | 0.266 GR | 0.356 GR | -0.0062 GR | 0.264 GR | 0.57 GR | 0.237 GR | 0.545 GR | 0.334 GR | 0.734 GR | 0.76 GR
13 | CCC(=O)Nc1ccc(C(=O)Nc2ccc(Nc3ncc4c(n3)N(C)c3ccc(C)cc3C(=O)N4C)cc2)cc1 [FMF-03-145-1] | 0.946 GR | 0.376 GR | -0.0541 GR | -0.0614 GR | -0.181 GR | 0.23 GR | 0.0989 GR | -0.0339 GR | 0.0265 GR | 0.205 GR | -0.09 GR
14 | COc1cc(N2CCN(C)CC2)ccc1Nc1ncc2c(n1)N(C)c1ccccc1C(=O)N2CC(F)(F)F [FMF-03-146-1] | -0.0165 GR | 0.001 GR | 0.866 GR | 0.946 GR | 0.808 GR | 0.892 GR | 0.886 GR | 0.839 GR | 0.78 GR | 0.833 GR | 0.942 GR
15 | CN1CC[C@H](c2c(O)cc(O)c3c(=O)cc(-c4ccccc4Cl)oc23)[C@H](O)C1 [Flavopiridol] (max 1 µM) | 0.458 GR | 0.316 GR | -0.892 GR | -0.573 GR | -0.526 GR | 0.027 GR | -0.324 GR | -0.44 GR | -0.291 GR | 0.155 GR | -0.568 GR
16 | CN(C)C(=O)c1cc2cnc(Nc3ccc(N4CCNCC4)cn3)nc2n1C1CCCC1 [LEE011/Ribociclib] (max 10 µM) | 0.166 GR | 0.166 GR | 0.157 GR | 0.378 GR | 0.543 GR | 0.778 GR | 0.199 GR | 0.97 GR | 0.31 GR | 0.824 GR | 0.682 GR
17 | O=C1NC(=NCc2cccs2)SC1=Cc1ccc2ncccc2c1 [R0-3306] (max 10 µM) | 0.197 GR | 0.0788 GR | -0.159 GR | -0.266 GR | -0.0775 GR | 0.203 GR | -0.11 GR | -0.0782 GR | 0.067 GR | 0.827 GR | -0.112 GR
18 | CNCc1ccc(-c2[nH]c3cc(F)cc4c3c2CCNC4=O)cc1 [Rucaparib] (max 10 µM) | 0.114 GR | 0.0455 GR | 0.423 GR | 0.867 GR | 0.906 GR | 0.523 GR | 0.771 GR | 0.91 GR | 0.635 GR | 0.772 GR | 0.68 GR
19 | CC1(N)CCN(c2cnc(-c3cccc(Cl)c3Cl)c(N)n2)CC1 [SHP099] (max 10 µM) | 0.0699 GR | 0.0203 GR | 0.444 GR | 0.807 GR | 0.569 GR | 0.733 GR | 0.749 GR | 0.825 GR | 0.847 GR | 0.457 GR | 0.988 GR
20 | CN(C)C/C=C/C(=O)Nc1ccc(C(=O)Nc2cccc(Nc3ncc(Cl)c(-c4c[nH]c5ccccc45)n3)c2)cc1 [THZ1] (max 1 µM) | 0.506 GR | 0.374 GR | -0.945 GR | -0.292 GR | -0.507 GR | -0.0084 GR | -0.467 GR | -0.312 GR | -0.469 GR | -0.219 GR | -0.658 GR
21 | CN(C)C/C=C/C(=O)Nc1ccc(C(=O)N2CCC[C@@H](Nc3ncc(Cl)c(-c4c[nH]c5ccccc45)n3)C2)cc1 [THZ531] (max 1 µM) | 0.407 GR | 0.134 GR | -0.968 GR | -0.203 GR | -0.303 GR | 0.0684 GR | -0.725 GR | -0.349 GR | -0.367 GR | -0.175 GR | -0.489 GR
22 | CN(C)C/C=C/C(=O)Nc1ccc(C(=O)Nc2cccc(Nc3cc(-c4c[nH]c5ccccc45)ncn3)c2)cc1 [THZ-P1-2] (max 10 µM) | -0.0028 GR | 0.0927 GR | -0.777 GR | -0.518 GR | -0.649 GR | -0.2 GR | -0.218 GR | 0.175 GR | -0.708 GR | -0.295 GR | -0.467 GR
23 | C=CC(=O)Nc1ccc(C(=O)Nc2[nH]nc3c2CN(C(=O)N[C@H](CN(C)C)c2ccccc2)C3(C)C)cc1 [YKL-5-124] (max 10 µM) | 0.57 GR | 0.982 GR | -0.765 GR | -0.448 GR | -0.14 GR | -0.178 GR | -0.39 GR | -0.58 GR | -0.268 GR | -0.0052 GR | -0.469 GR
24 | CN1CCN(C(=O)c2ccc3cc(CCNc4ncnc5ccc(C#N)cc45)ccc3c2)CC1 [senexin b] (max 10 µM) | 0.37 GR | 0.0206 GR | 0.466 GR | 0.309 GR | 0.455 GR | 0.705 GR | 0.248 GR | 0.675 GR | 0.474 GR | 0.444 GR | 0.817 GR
